Test results: ChEMBL document CHEMBL5303711, “ECBD screening data for assay EOS300108” (2023)
The source made the active and inactive calls. The rule behind the calls is not given here.

Assay: Cytotoxicity activity against human HepG2 cells assessed by CellTiter-Glo luminescent cell viability assay.
Type: toxicity, cell-based
Set-up: assay stage confirmatory assay, source tissue liver
Conditions: HepG2 cells, read-out: IC50 relative
With `COc1ccc(-c2noc(N3CCC(C(=O)N4CCN(c5ccccc5OC)CC4)CC3)n2)cc1` the CC50 was 8 µM (active). In the case of `CC(=O)N1CCCc2cc(S(=O)(=O)N3CCCC(C(=O)N4CCN(c5ccccc5)CC4)C3)ccc21` (stereo not given), the CC50 was 12.7 µM (inactive). In the case of `CCOc1ccc(S(=O)(=O)Nc2ccc3c(c2)N(C(C)=O)CCC3)cc1`, the CC50 was 6.4 µM (active). In the case of `CCc1ccc(-c2cc3c(=O)n(CC(=O)NCCCN4CCN(CC)CC4)nc(C)n3n2)cc1`, the CC50 was 25.5 µM (inactive). In the case of `CCS(=O)(=O)N1CCc2ccc(NC(=O)Nc3cccc(C)c3)cc21`, the CC50 was 2.2 µM (active). For `CCS(=O)(=O)N1CCc2ccc(NC(=O)Nc3cccc(F)c3)cc21`, the CC50 was 5.2 µM (active). In the case of `CCS(=O)(=O)N1CCc2ccc(NC(=O)Nc3cccc(C#N)c3)cc21`, the CC50 was 5.2 µM (active). For `CSc1ccc(NC(=O)Nc2ccc3c(c2)N(S(C)(=O)=O)CC3)cc1`, the CC50 was 8.1 µM (inactive). With `Cc1cccc(NC(=O)C2CCN(S(=O)(=O)c3cn(C(C)C)cn3)CC2)c1` the CC50 was 8.8 µM (inactive). With `COc1ccc(NS(=O)(=O)c2ccc3onc(C(=O)N4CCCC4)c3c2)cc1` the CC50 was 7.1 µM (active). In the case of `CCN1CCN(c2cc3c(cc2S(=O)(=O)N2CCCCCC2)C(=O)Nc2ccccc2O3)CC1`, the CC50 was 10.9 µM (active). For `CC(C)NC(=O)N1CC(Oc2ccc(-c3noc(C4CC4)n3)cc2)C1`, the CC50 was 2.6 µM (active). In the case of `Cc1nc[nH]c1CNCCCc1ccc(C(C)C)cc1`, the CC50 was 13.6 µM (inactive). In the case of `CC(=O)Nc1ccc(Nc2nc(C)cc(N3CCCC3)n2)cc1`, the CC50 was 10.2 µM (active). For `CCn1c(=O)c2sc(N3CCCC3)nc2n(CC(=O)Nc2ccc(OC)cc2)c1=O`, the CC50 was 31.4 µM (inactive). With `CCC(C)NC(=O)N1CC(Oc2ccc(-c3noc(C4CCOCC4)n3)cc2)C1` (stereo not given) the CC50 was 4.8 µM (active). For `Cn1ncc(N2CCC(C(=O)N3CCN(CCOc4ccc(Cl)cc4)CC3)C2)cc1=O` (stereo not given), the CC50 was 5 µM (active). With `COc1ccc(C(=O)N[C@@H]2CN(Cc3ccccc3)C[C@H]2CN(C)C)cc1` the CC50 was 7.2 µM (active). For `CC(=O)N1c2ccc(S(=O)(=O)N3CCOCC3)cc2CC1C(=O)NCCN1CCCCCC1` (stereo not given), the CC50 was 50 µM (inactive). For `CCn1c(=O)c(C(=O)Nc2cccc(OC)c2)c(O)c2ccccc21`, the CC50 was 2.4 µM (inactive). In the case of `CC1CCN(S(=O)(=O)c2ccc(-c3nnc(C(=O)NCCCN4CCCCCC4)o3)cc2)CC1`, the CC50 was 15.6 µM (inactive). With `COc1ccc(-c2nc(CC3CCN(C(=O)NC(C)(C)C)C3)no2)cc1` (stereo not given) the CC50 was 7.8 µM (active). With `CCN(CC)C(=O)N1CC(Oc2ccc(-c3noc(C4CCOCC4)n3)cc2)C1` the CC50 was 2.3 µM (active). With `CCN(CC)C(=O)N1CC(Oc2ccc(-c3noc(-c4cccnc4)n3)cc2)C1` the CC50 was 2.2 µM (active). With `CSc1cccc(NC(=O)Nc2ccc3c(c2)N(S(C)(=O)=O)CC3)c1` the CC50 was 5.4 µM (active). In the case of `CCCNC(=O)N1CC(Oc2ccc(-c3noc(C4CC4)n3)cc2)C1`, the CC50 was 6.1 µM (active). With `CCOc1ccccc1NC(=O)COc1cccc2c(=O)n(C)ccc12` the CC50 was 1.4 µM (inactive). With `CC(=O)Nc1ccc(NC(=O)c2c(O)c3sccc3n(Cc3ccccc3)c2=O)cc1` the CC50 was 50 µM (inactive). In the case of `Cc1ccc(-c2cc3c(=O)n(Cc4noc(CN5CCN(C)CC5)n4)ccn3n2)cc1`, the CC50 was 9.4 µM (active). In the case of `Cc1ccc(-c2cc3c(=O)n(CC#N)ccn3n2)cc1`, the CC50 was 0.3 µM (active). With `CN1CCCC(CNc2ccc3cc(Cl)ccc3n2)C1` (stereo not given) the CC50 was 7.9 µM (active). With `Cc1cc(C)cc(C(=O)N2CCN(c3cc(=O)n(C(C)C)c(=O)n3C(C)C)CC2)c1` the CC50 was 3.5 µM (active). In the case of `CC(C)NC(=O)N1CC(Oc2ccc(-c3noc(C4CCOCC4)n3)cc2)C1`, the CC50 was 4.1 µM (active). With `COc1ccc(NS(=O)(=O)c2ccc3onc(C(=O)N4CCCC4)c3c2)cc1OC` the CC50 was 0.6 µM (active). In the case of `CCS(=O)(=O)N1CCc2ccc(NC(=O)Nc3ccc(Cl)cc3)cc21`, the CC50 was 14.3 µM (inactive). In the case of `CCCCC(=O)Nc1ccc(Nc2nc(C)cc(N3CCOCC3)n2)cc1`, the CC50 was 10.1 µM (active). In the case of `CCCNC(=O)N1CC(Oc2ccc(-c3noc(-c4ccncc4)n3)cc2)C1`, the CC50 was 3.1 µM (active). In the case of `CCc1onc(C)c1C1CCCN1Cc1ccc(OC)c(O)c1` (stereo not given), the CC50 was 6.1 µM (active). In the case of `CCC(C)NC(=O)N1CC(Oc2ccc(-c3noc(-c4ccncc4)n3)cc2)C1` (stereo not given), the CC50 was 3.8 µM (active). In the case of `Cc1cc(C(=O)Nc2ccc(Cl)cc2F)nc2ccnn12`, the CC50 was 2.4 µM (inactive). With `Cc1cc(C)cc(NC(=O)N(C)CCc2scnc2C)c1` the CC50 was 50 µM (inactive). With `COc1ccc(C)cc1NC(=O)N1CCC(n2cnc3cc(F)ccc3c2=O)CC1` the CC50 was 9.9 µM (active). In the case of `Cc1ccc(NC(=O)Nc2ccc3c(c2)N(S(C)(=O)=O)CC3)cc1`, the CC50 was 8.6 µM (inactive). For `CCc1ccc(NC(=O)Nc2ccc3c(c2)N(S(C)(=O)=O)CC3)cc1`, the CC50 was 2.3 µM (active). In the case of `COc1ccc(C(=O)N[C@@H]2CN(Cc3ccccc3)C[C@H]2CN(C)C)c(OC)c1`, the CC50 was 11.1 µM (active). For `Cc1ccc(NC(=O)Nc2ccc3c(c2)N(S(C)(=O)=O)CC3)cc1F`, the CC50 was 3.6 µM (inactive). In the case of `CCCNC(=O)N1CC(Oc2ccc(-c3noc(-c4cccnc4)n3)cc2)C1`, the CC50 was 6 µM (active). In the case of `COc1ccc(OC)c(C(O)CN2CCN(c3cccc(C)c3C)CC2)c1` (stereo not given), the CC50 was 9.9 µM (active). With `O=C(CC1CCCN(c2cn[nH]c(=O)c2)C1)Nc1cccc(Cl)c1` (stereo not given) the CC50 was 8.1 µM (active). In the case of `COc1cc(-c2cc(C)no2)ccc1S(=O)(=O)Nc1cc(OC)c(OC)c(OC)c1`, the CC50 was 4.5 µM (active). In the case of `CCS(=O)(=O)N1CCc2ccc(NC(=O)Nc3cccc(Cl)c3)cc21`, the CC50 was 2.6 µM (active). In the case of `CCCS(=O)(=O)N1CCc2ccc(NC(=O)Nc3cccc(OC)c3)cc21`, the CC50 was 4.9 µM (active). For `CCc1ccc(NC(=O)Nc2ccc3c(c2)N(S(=O)(=O)CC)CC3)cc1`, the CC50 was 2.4 µM (active). In the case of `CCC(C)NC(=O)N1CC(Oc2ccc(-c3noc(-c4cccnc4)n3)cc2)C1` (stereo not given), the CC50 was 4.5 µM (active). For `Cc1ccc(NC(=O)Nc2ccc3c(c2)N(S(C)(=O)=O)CC3)cc1C`, the CC50 was 16.8 µM (inactive). With `COc1ccc(NC(=O)Nc2ccc3nc(S(C)(=O)=O)sc3c2)cc1` the CC50 was 17.5 µM (inactive). In the case of `CC(C)CNC(=O)N1CC(Oc2ccc(-c3noc(-c4cccnc4)n3)cc2)C1`, the CC50 was 5.4 µM (active). For `CC(NC(=O)N(C)CC1CCOCC1)c1ccccc1C(F)(F)F` (stereo not given), the CC50 was 50 µM (inactive). In the case of `CC(C)CNC(=O)N1CC(Oc2ccc(-c3noc(C4CCOCC4)n3)cc2)C1`, the CC50 was 4.3 µM (active). In the case of `CC(=O)c1ccc(N2CCN(S(=O)(=O)c3ccc4onc(C(=O)N5CCCC5)c4c3)CC2)cc1`, the CC50 was 0.9 µM (active). With `CCCC(=O)Nc1ccc(Nc2nc(C)cc(N(CC)CC)n2)cc1` the CC50 was 4.2 µM (active). With `CCN(CC)CCCNC(=O)C1CCN(c2ncc(-c3ccccc3)cn2)CC1` the CC50 was 9.7 µM (active). For `COCC(=O)Nc1ccc(Nc2nc(C)cc(N3CCCC3)n2)cc1`, the CC50 was 3.6 µM (active). With `CS(=O)(=O)N1CCc2ccc(NC(=O)Nc3cccc(C#N)c3)cc21` the CC50 was 9.7 µM (active). In the case of `CCNc1cc(C)nc(Nc2ccc(NC(=O)CC(C)C)cc2)n1`, the CC50 was 11 µM (active). With `CS(=O)(=O)N1CCc2ccc(NC(=O)Nc3cccc(Cl)c3)cc21` the CC50 was 1.3 µM (active). For `CC(C)Cn1c(=O)c2sccc2n2c(=O)n(CC(=O)Nc3ccc(F)cc3)nc12`, the CC50 was 50 µM (inactive). With `CCCS(=O)(=O)N1CCc2ccc(NC(=O)Nc3ccc(OCC)cc3)cc21` the CC50 was 50 µM (inactive). In the case of `CS(=O)(=O)N1CCc2ccc(NC(=O)Nc3ccc(Br)cc3)cc21`, the CC50 was 3.2 µM (inactive). In the case of `Cc1cc(N(C)C)nc(N2CCN(C(=O)c3ccc(C(C)(C)C)cc3)CC2)n1`, the CC50 was 5.1 µM (active). For `Cc1cccc(NC(=O)Nc2ccc3c(c2)N(S(C)(=O)=O)CC3)c1`, the CC50 was 3.3 µM (active). With `CCc1ccc(-c2cc3c(=O)n(CC(=O)NCCCN4CCCC4)nc(C)n3n2)cc1` the CC50 was 11.4 µM (active). With `Cc1ccc2nccc(N3CCCC(CCC(=O)N(C)C)C3)c2c1` (stereo not given) the CC50 was 8.3 µM (active). With `O=C(NCc1ccccc1)c1c(O)c2cccnc2n(Cc2ccccc2)c1=O` the CC50 was 6.9 µM (active). For `CCC(C)NC(=O)N1CC(Oc2ccc(-c3noc(C4CC4)n3)cc2)C1` (stereo not given), the CC50 was 3.5 µM (active). In the case of `O=C(NC1CCCC1)N1CC(Oc2ccc(-c3noc(-c4cccnc4)n3)cc2)C1`, the CC50 was 6.9 µM (active). For `O=C1Nc2cc(Cl)ccc2Oc2ccc(S(=O)(=O)N3CCCC3)cc21`, the CC50 was 6.4 µM (active). For `Cc1ccc(S(=O)(=O)NCCCNC(=O)c2c3c(nn2C)CCCC3)cc1`, the CC50 was 4.6 µM (active). With `CCc1cccc(NC(=O)Nc2ccc3c(c2)N(S(C)(=O)=O)CC3)c1` the CC50 was 2.9 µM (active). With `CCCNC(=O)N1CC(Oc2ccc(-c3noc(C4CCOCC4)n3)cc2)C1` the CC50 was 3.7 µM (active). In the case of `COc1ccc2c(c1)C=C(C(=O)NCc1ccc(OC)c(OC)c1)CO2`, the CC50 was 6.3 µM (active). In the case of `Cc1cc(F)ccc1N1CCC(NCC(O)c2cccc(O)c2)CC1` (stereo not given), the CC50 was 10.1 µM (active). In the case of `CCN(CC)CCNC(=O)C1CCCN(c2ncc(-c3ccc(C)cc3)cn2)C1` (stereo not given), the CC50 was 4.3 µM (active). For `CS(=O)(=O)N1CCc2ccc(NC(=O)Nc3ccc(Cl)cc3)cc21`, the CC50 was 3.9 µM (inactive). With `O=C(Nc1ccncc1)c1cccn(Cc2cccc(F)c2)c1=O` the CC50 was 6.1 µM (active). In the case of `CCCc1cc(C(=O)NCC2CN(C3CCN(C4CCC4)CC3)C(=O)CO2)n(C)n1` (stereo not given), the CC50 was 50 µM (inactive). With `Cc1cccc(C(=O)N[C@@H]2CN(Cc3ccccc3)C[C@H]2CN(C)C)c1` the CC50 was 10 µM (active). In the case of `CCCS(=O)(=O)N1CCc2ccc(NC(=O)Nc3ccc(SC)cc3)cc21`, the CC50 was 18.2 µM (inactive). For `COc1ccc(NC(=O)Nc2ccc3c(c2)N(S(C)(=O)=O)CC3)cc1Cl`, the CC50 was 10.5 µM (inactive). For `COc1ccccc1NC(=O)N1CCC(n2cnc3ccc(C)cc3c2=O)CC1`, the CC50 was 3.6 µM (active). For `CCCS(=O)(=O)N1CCc2ccc(NC(=O)Nc3cccc(C#N)c3)cc21`, the CC50 was 10.2 µM (active). For `CCC(=O)Nc1ccc(Nc2nc(C)cc(N(CC)CC)n2)cc1`, the CC50 was 4.5 µM (active). For `CN1CCN(c2cc3c(cc2S(=O)(=O)N2CCCCCC2)C(=O)Nc2ccccc2O3)CC1`, the CC50 was 11.5 µM (active). For `CC(C)NC(=O)N1CC(Oc2ccc(-c3noc(-c4cccnc4)n3)cc2)C1`, the CC50 was 3.4 µM (active). For `CCCC(=O)Nc1ccc(Nc2nc(C)cc(N3CCCC3)n2)cc1`, the CC50 was 5.7 µM (active).
